Where a name gives a salt, the structure may show the parent alone.
Key:
Human DYRK1B = biological target: T1, Human DYRK1B (Homo sapiens, UniProt Q9Y463); experiment: DYRK1B Kinase TR-FRET (IMAP-Tb) Assay; type: biochemical; conditions: TR-FRET (IMAP-Tb); ATP 70 μM; 37° C. for 60 minutes; averages of multiple runs; read-out: Enzyme IC50 (μM) DYRK1B
T1 construct: purchased Invitrogen PR8350B (former PV4649)
Source text: DYRK1B Kinase TR-FRET (IMAP-Tb) Assay Assay Principle The kinase TR-FRET (IMAP-Tb) assay uses a fluorescence labeled substrate peptide in the kinase reaction. Upon phosphorylation by the kinase, phosphopeptide is produced, which will be detected by the binding solution provided in IMAP TR-FRET binding kit. After the completion of the kinase reaction, the reaction will be stopped by adding the binding solution containing terbium tracer. This tracer is immobilized on the surface of the IMAP beads, which also contain metal ions on the beads that bind to the phospho-groups of the products. Thus the phosphorylated product of the reaction can enter into close proximity to the tracer, producing resonance energy transfer. Due to the long lifetime of terbium (Tb) fluorescence the detection can be run in time resolved mode, which virtually eliminates fluorescence interference from assay components or compounds. The TR-FRET signal measurement from this assay, given as an IC50 measurement, is a measure of a test compound's ability to interfere with the phosphorylation of the peptide substrate, that is it inhibits the phosphorylation of the substrate peptide by DYRK1B, and is thus a measure of the test compound's ability to inhibit the activity of DYRK1B. IC50 is the amount of test compound that inhibits 50% of the activity of DYRK1B in this assay. In some cases where the IC50 was not determined, then the % inhibition at 10 μM test compound concentration may be reported. Materials and Reagents • 1. Human DYRK1B: from Invitrogen. Part #PR8350B (former PV4649) • 2. Substrate Peptide: in-house synthesized: RRRFRPASPLRGPPK • 3. IMAP TR-FRET IPP Explorer Kit: from Molecular Devices. Part #R8157 • 4. Kinase Assay Buffer (KAB): 10 mM HEPES pH 7.0, 50 mM NaCl, 5 mM MgCl2, 1 mM DTT, 1 mM NaVO4, 200 μg/mL BSA (0.02%) • 5. Assay Plate: Remp polypropylene clear 384-well microplate. Cat#23490-102 • 6. Detection Plate: Costa black 384-well microplate. Cat #3710 Assay Procedure: this Assay was Performed as Follows: • 1. Transfer 1.5 μL of 20× compound solution to each well of an assay plate. • 2. Add to each well 22.5 μL of KAB Buffer. • 3. Add to each well 3 μL of the solution of DYRK1B and ATP. […] Add to each well 3 μL of the substrate peptide. The assay concentration is 1.0 μM • 5. Incubate the assay plates at 37° C. for 60 minutes. • 6. Add 18 μL of Detection Solution (1:800 diluted Progress bead stock, 1:400 diluted Tb stock, 80% Buffer A, and 20% Buffer B) into each well of detection plates. • 7. Transfer 6 μL of assay solution from the assay plate to the detection plate. • 8. Shake detection plates for 30 minutes. • 9. Read plates in Envision with wavelength set at excitation 340 nm for Tb, emission 490 nm, and […] 520 nm. • 10. Calculation: TR-FRET Signal=(Reading at […]/Reading at 490 nM)×2000000

Human DYRK1A = biological target: T2, Human DYRK1A (Homo sapiens, UniProt Q13627); experiment: DYRK1A Kinase TR-FRET (IMAP-Tb) Assay; type: biochemical; conditions: TR-FRET (IMAP-Tb); ATP 70 μM; 37° C. for 60 minutes; averages of multiple runs; read-out: Enzyme IC50 (μM) DYRK1A
T2 construct: purchased Invitrogen PV3997
Source text: DYRK1A Kinase TR-FRET (IMAP-Tb) Assay
The kinase TR-FRET (IMAP-Tb) assay uses a fluorescence labeled substrate peptide in the kinase reaction. Upon phosphorylation by the kinase, phosphopeptide is produced, which will be detected by the binding solution provided in IMAP TR-FRET binding kit. After the completion of the kinase reaction, the reaction will be stopped by adding the binding solution containing terbium tracer. This tracer is immobilized on the surface of the IMAP beads, which also contain metal ions on the beads that bind to the phospho-groups of the products. Thus the phosphorylated product of the reaction can enter into close proximity to the tracer, producing resonance energy transfer. Due to the long lifetime of terbium (Tb) fluorescence the detection can be run in time resolved mode, which virtually eliminates fluorescence interference from assay components or compounds.
The TR-FRET signal measurement from this assay, given as an IC50 measurement, is a measure of a test compound's ability to interfere with the phosphorylation of the peptide substrate, that is it inhibits the phosphorylation of the substrate peptide by DYRK1A, and is thus a measure of the test compound's ability to inhibit the activity of DYRK1A.
Materials and Reagents • 1. Human DYRK1A: from Invitrogen. Part #PV3997 • 2. Substrate Peptide: […] • 3. IMAP TR-FRET IPP Explorer Kit: from Molecular Devices. Part #R8157 • 4. Kinase Assay Buffer (KAB): 10 mM HEPES pH 7.0, 50 mM NaCl, 5 mM MgCl2, 1 mM DTT, 1 mM NaVO4, 200 ug/mL BSA (0.02%) • 5. Assay Plate: Remp polypropylene clear 384-well microplate. […] Detection Plate: Costa black 384-well microplate.
Assay Procedure: this Assay was Performed as Follows: • 1. Transfer 1.5 μL of 20× compound solution to each well of an assay plate. • 2. Add to each well 22.5 μL of KAB Buffer. • 3. Add to each well 3 μL of the solution of DYRK1A and ATP. […] Add to each well 3 μL of the substrate peptide. The assay concentration is 1.0 μM • 5. Incubate the assay plates at 37° C. for 60 minutes. • 6. Add 18 μL of Detection Solution (1:800 diluted Progress bead stock, 1:400 diluted Tb stock, 80% Buffer A, and 20% Buffer B) into each well of detection plates. • 7. Transfer 6 μL of assay solution from the assay plate to the detection plate. • 8. Shake detection plates for 30 minutes. • 9. Read plates in Envision with wavelength set at excitation 340 nm for Tb, emission 490 nm, and […] 520 nm. • 10.

[1] = test system: SW620 human colon cancer cells; experiment: SW620 Cell Viability Assay; type: cell-based; conditions: SW-620, 96 h, CellTiter-Glo Luminescent Cell Viability Assay, 4 days incubation, read-out: Cellular EC50 (μM) SW620
Procedure: SW620 Cell Viability Assay
1. Cell Plate Preparation: SW620 human colon cancer cells (known to express DYRK1B), obtained from ATCC, were seeded into 96-well plates at 3×10^3 cells/well in 50 μL of media. • Harvested the required number of cells (counts & viability determined by Guava Viacount). • Centrifuge cells to pellet and removed supernant. • Resuspended in growth media (50 μL/well) & pipetted thoroughly to break up clumps. • Setup for ˜100 wells/plate, therefore, VT=5 mL/plate @ […].
1A. Some cells (S—) were allowed to attach for 24 hrs, serum starved for 48 hrs, and then followed with test compound treatments.
Test compound solution were prepared in regular corresponding media supplemented with serum.
2. Test compound Preparation: Drugs were solubilized in either DMSO or media and prepared at various stock concentrations. • All compounds were incubated at 37° C. for 30 minutes and vortexed. • (5 mM stocks of test compound were prepared for non-soluble test compounds)
3. Test compound Plate Preparation: • The 10 mM test compound stock was diluted to a concentration of 100× the final Cmax concentration. • Then the test compound stock is diluted 50-fold in media and/or second test compound for a final Cmax concentration in the test compound plate. • The Cmax in the test compound plate (2% DMSO) is 2-fold higher than the final Cmax in the cell plate (60 μl, titrations were 1:3).
4. Viability Assay: This assay was performed as follows: • Transfer 50 μL of test compound solution per well from the test compound plate onto the cell plate prepared in Step #1. • Mix the plate with treated cells by pipetting up and down three times with 200 μL multi-channel pipette. • Incubate the cells in 5% CO2 incubator @ 37° C. for 4 days. • Run the CellTiter-Glo™ Luminescent Cell Viability Assay.
The results of this assay, given as EC50 values, indicate the concentration of test compound that inhibits tumor cell proliferation by 50%.

T1 sequence (Q9Y463 whole entry): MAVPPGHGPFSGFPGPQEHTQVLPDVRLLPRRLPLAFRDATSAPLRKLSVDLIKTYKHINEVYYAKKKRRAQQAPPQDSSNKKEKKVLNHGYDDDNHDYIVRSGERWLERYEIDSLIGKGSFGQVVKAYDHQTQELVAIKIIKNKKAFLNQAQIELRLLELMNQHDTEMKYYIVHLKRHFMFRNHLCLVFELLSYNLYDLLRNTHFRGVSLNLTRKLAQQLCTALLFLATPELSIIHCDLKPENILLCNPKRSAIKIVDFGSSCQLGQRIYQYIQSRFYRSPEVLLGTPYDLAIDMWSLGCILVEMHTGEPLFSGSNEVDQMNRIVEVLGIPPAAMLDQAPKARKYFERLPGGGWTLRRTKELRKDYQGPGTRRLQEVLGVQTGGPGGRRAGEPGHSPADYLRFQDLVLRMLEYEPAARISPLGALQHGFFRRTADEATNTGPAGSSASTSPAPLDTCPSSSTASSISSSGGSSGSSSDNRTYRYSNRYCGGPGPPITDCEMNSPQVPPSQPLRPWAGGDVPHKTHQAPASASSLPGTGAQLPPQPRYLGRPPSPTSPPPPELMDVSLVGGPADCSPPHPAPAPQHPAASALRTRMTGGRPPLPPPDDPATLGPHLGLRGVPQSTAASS

Row | SMILES | IC50 (Human DYRK1B) [µM] | IC50 (Human DYRK1A) [µM] | EC50 [1] [µM]
1 | c1cc(NCc2ccsc2)nc(-c2n[nH]c3nc(NCCN4CCOCC4)ncc23)c1 [Example 60, (2-Morpholin-4-yl-ethyl)-(3-{6-[(thiophen-3-ylmethyl)-amino]-pyridin-2-yl}-1H-pyrazolo[3,4-d]pyrimidin-6-yl)-amine] | 0.234 | 0.785 | > 10
2 | c1ccc(CNc2nccc(-c3n[nH]c4nc(NCCN5CCOCC5)ncc34)n2)cc1 [Example 61, [3-(2-Benzylamino-pyrimidin-4-yl)-1H-pyrazolo[3,4-d]pyrimidin-6-yl]-(2-morpholin-4-yl-ethyl)-amine; hydrochloride] | 0.0958 | 0.061 | > 10
3 | Clc1cccc(CNc2nccc(-c3n[nH]c4nc(NCCN5CCOCC5)ncc34)n2)c1 [Example 62, {3-[2-(3-Chloro-benzylamino)-pyrimidin-4-yl]-1H-pyrazolo[3,4-d]pyrimidin-6-yl}-(2-morpholin-4-yl-ethyl)-amine; hydrochloride] | 0.0586 | 0.0384 | > 10
4 | Clc1ccccc1CNc1nccc(-c2n[nH]c3nc(NCCN4CCOCC4)ncc23)n1 [Example 63, {3-[2-(2-Chloro-benzylamino)-pyrimidin-4-yl]-1H-pyrazolo[3,4-d]pyrimidin-6-yl}-(2-morpholin-4-yl-ethyl)-amine; hydrochloride] | 0.0671 | 0.0371 | 0.9
5 | Clc1ccc(CNc2nccc(-c3n[nH]c4nc(NCCN5CCOCC5)ncc34)n2)cc1 [Example 64, {3-[2-(4-Chloro-benzylamino)-pyrimidin-4-yl]-1H-pyrazolo[3,4-d]pyrimidin-6-yl}-(2-morpholin-4-yl-ethyl)-amine; hydrochloride] | 0.353 | 0.242 | > 10
6 | N[C@H]1CC[C@H](Nc2ncc3c(-c4ccnc(NCc5ccsc5)n4)n[nH]c3n2)CC1 [Example 66, N-(3-{2-[(Thiophen-3-ylmethyl)-amino]-pyrimidin-4-yl}-1H-pyrazolo[3,4-d]pyrimidin-6-yl)-cyclohexane-1,4-diamine; hydrochloride] | 0.0172 | 0.0148 | 0.04
7 | NCCC(Nc1cccc(-c2n[nH]c3nc(N[C@H]4CC[C@H](N)CC4)ncc23)n1)c1ccccc1 (stereo partly drawn) [Example 69, N-{3-[6-(3-Amino-1-phenyl-propylamino)-pyridin-2-yl]-1H-pyrazolo[3,4-d]pyrimidin-6-yl}-cyclohexane-1,4-diamine; hydrochloride] | 0.197 | 0.231 | 0.001
8 | N[C@H]1CC[C@H](Nc2ncc3c(-c4ccnc(NCc5ccccc5)n4)n[nH]c3n2)CC1 [Example 70, N-[3-(2-Benzylamino-pyrimidin-4-yl)-1H-pyrazolo[3,4-d]pyrimidin-6-yl]-cyclohexane-1,4-diamine; hydrochloride] | 0.0125 | 0.0062 | > 10
9 | N[C@H]1CC[C@H](Nc2ncc3c(-c4ccnc(NCc5cccc(Cl)c5)n4)n[nH]c3n2)CC1 [Example 71, N-{3-[2-(3-Chloro-benzylamino)-pyrimidin-4-yl]-1H-pyrazolo[3,4-d]pyrimidin-6-yl}-cyclohexane-1,4-diamine; hydrochloride] | 0.006 | 0.0046 | 0.027
10 | N[C@H]1CC[C@H](Nc2ncc3c(-c4ccnc(NCc5ccc(Cl)cc5)n4)n[nH]c3n2)CC1 [Example 72, N-{3-[2-(4-Chloro-benzylamino)-pyrimidin-4-yl]-1H-pyrazolo[3,4-d]pyrimidin-6-yl}-cyclohexane-1,4-diamine; hydrochloride] | 0.009 | 0.013 | 0.056
11 | NCC(Nc1cccc(-c2n[nH]c3nc(N[C@H]4CC[C@H](N)CC4)ncc23)n1)c1ccccc1 (stereo partly drawn) [Example 74, N-{3-[6-(2-Amino-1-phenyl-ethylamino)-pyridin-2-yl]-1H-pyrazolo[3,4-d]pyrimidin-6-yl}-cyclohexane-1,4-diamine; hydrochloride] | < 0.0046 | 0.0046 | > 10
12 | NCC(Nc1nccc(-c2n[nH]c3nc(NCCN4CCOCC4)ncc23)n1)c1cccc(Cl)c1 (stereo not drawn) [Example 76, 1-(3-Chloro-phenyl)-N1-{4-[6-(2-morpholin-4-yl-ethylamino)-1H-pyrazolo[3,4-d]pyrimidin-3-yl]-pyrimidin-2-yl}-ethane-1,2-diamine; hydrochloride] | 0.0121 | 0.0076 | 0.14

From US8362023B2, “Pyrazolo pyrimidines” (Hoffmann-La Roche Inc., priority 2011, dated 2013)
